Values joined by “and” are separate entries in the source; they are usually repeats but may differ in a detail not shown here. Equal values may be shown once. Inconclusive results and toxic doses are left out.
Test system: BALB/cJ mice, ADJ-PC-6 ip tumor, median survival T/C
Test: NCI In Vivo Anticancer Drug Screen. Data for tumor model ADJ-PC-6 (intraperitoneal) in BALB/cJ mice
Conditions: endpoint: median survival time, higher = longer survival
Method: The antitumor activity of compounds was measured in mice bearing transplantable tumors. Survival or tumor size were measured and the results are expressed as the measurement made in the treated group (T) divided by the measurement made in the vehicle treated control group (C). The tumor model used in this assay is ADJ-PC-6 (intraperitoneal) in BALB/cJ mice

[1] = dose: 0.25 mg/kg/injection, schedule: Q04DX003 (ip), vehicle: saline
[2] = dose: 0.5 mg/kg/injection, schedule: Q04DX003 (ip), vehicle: saline
[3] = dose: 1.0 mg/kg/injection, schedule: Q04DX003 (ip), vehicle: saline
[4] = dose: 2.0 mg/kg/injection, schedule: Q04DX003 (ip), vehicle: saline

O=C(O)C1(C(=O)O)CCC1.[NH2-].[NH2-].[Pt+2]
T/C (dose: 10.8 mg/kg/injection, schedule: Q01DX009 (ip), vehicle: water): 159 % of control | T/C (dose: 11.7 mg/kg/injection, schedule: Q04DX003 (ip), vehicle: water): 106 % of control | T/C (dose: 12.5 mg/kg/injection, schedule: Q04DX003 (ip), vehicle: saline): 108 % of control | T/C (dose: 18.0 mg/kg/injection, schedule: Q01DX009 (ip), vehicle: water): 175 % of control | T/C (dose: 19.4 mg/kg/injection, schedule: Q04DX003 (ip), vehicle: water): 106 % of control | T/C (dose: 25.0 mg/kg/injection, schedule: Q04DX003 (ip), vehicle: saline): 114 % of control | T/C (dose: 32.4 mg/kg/injection, schedule: Q04DX003 (ip), vehicle: water): 164 % of control | T/C (dose: 50.0 mg/kg/injection, schedule: Q04DX003 (ip), vehicle: saline): 178 % of control | T/C (dose: 54.0 mg/kg/injection, schedule: Q04DX003 (ip), vehicle: water): 170 % of control and 215 % of control | T/C (dose: 90.0 mg/kg/injection, schedule: Q04DX003 (ip), vehicle: water): 103 % of control | T/C (dose: 100.0 mg/kg/injection, schedule: Q04DX003 (ip), vehicle: saline): 217 % of control

CN(Cc1cnc2nc(N)nc(N)c2n1)c1ccc(C(=O)N[C@@H](CCC(=O)O)C(=O)O)cc1
T/C (dose: 1.25 mg/kg/injection, schedule: Q04DX003 (ip), vehicle: sodium bicarbonate): 97 % of control | T/C (dose: 2.5 mg/kg/injection, schedule: Q04DX003 (ip), vehicle: sodium bicarbonate): 110 % of control | T/C (dose: 5.0 mg/kg/injection, schedule: Q04DX003 (ip), vehicle: sodium bicarbonate): 104 % of control and 111 % of control | T/C (dose: 10.0 mg/kg/injection, schedule: Q04DX003 (ip), vehicle: sodium bicarbonate): 124 % of control | T/C (dose: 20.0 mg/kg/injection, schedule: Q04DX003 (ip), vehicle: sodium bicarbonate): 93 % of control and 124 % of control | T/C (dose: 40.0 mg/kg/injection, schedule: Q04DX003 (ip), vehicle: sodium bicarbonate): 156 % of control

[Cl][Pt+2][Cl].[NH-]C1CCC1.[NH2-]
T/C (dose: 1.04 mg/kg/injection, schedule: Q04DX003 (ip), vehicle: water): 216 % of control | T/C (dose: 1.73 mg/kg/injection, schedule: Q04DX003 (ip), vehicle: water): 265 % of control | T/C (dose: 2.88 mg/kg/injection, schedule: Q04DX003 (ip), vehicle: water): 301 % of control

CC(=O)[C@]1(O)Cc2c(O)c3c(c(O)c2[C@@H](OC2CC(N)C(O)C(C)O2)C1)C(=O)c1c(O)cccc1C3=O (stereo not given in full)
T/C (dose: 0.13 mg/kg/injection, schedule: Q04DX003 (ip), vehicle: saline): 164 % of control | T/C [1]: 168 % of control | T/C [2]: 178 % of control

O=NN(CCCl)C(=O)NCCCl
T/C (dose: 1.25 mg/kg/injection, schedule: Q04DX003 (ip), vehicle: saline + alcohol): 106 % of control | T/C (dose: 5.0 mg/kg/injection, schedule: Q04DX003 (ip), vehicle: saline + alcohol): 101 % of control and 178 % of control and 248 % of control | T/C (dose: 10.0 mg/kg/injection, schedule: Q04DX003 (ip), vehicle: saline + alcohol): 150 % of control and 322 % of control | T/C (dose: 20.0 mg/kg/injection, schedule: Q04DX003 (ip), vehicle: saline + alcohol): 222 % of control and 235 % of control and 355 % of control | T/C (dose: 40.0 mg/kg/injection, schedule: Q04DX003 (ip), vehicle: saline + alcohol): 92 % of control and 235 % of control

Cc1c2ccncc2c(C)c2c1[nH]c1ccccc12
T/C (dose: 6.25 mg/kg/injection, schedule: Q04DX003 (ip), vehicle: saline with Tween-80): 122 % of control | T/C (dose: 25.0 mg/kg/injection, schedule: Q04DX003 (ip), vehicle: saline with Tween-80): 190 % of control | T/C (dose: 50.0 mg/kg/injection, schedule: Q04DX003 (ip), vehicle: saline with Tween-80): 255 % of control | T/C (dose: 100.0 mg/kg/injection, schedule: Q04DX003 (ip), vehicle: saline with Tween-80): 250 % of control

O=C1c2c(O)ccc(O)c2C(=O)c2c(NCCNCCO)ccc(NCCNCCO)c21
T/C (dose: 0.38 mg/kg/injection, schedule: Q04DX003 (ip), vehicle: saline): 155 % of control and 267 % of control | T/C (dose: 0.38 mg/kg/injection, schedule: Q04DX003 (iv), vehicle: saline): 89 % of control | T/C [2]: 188 % of control | T/C (dose: 0.5 mg/kg/injection, schedule: Q04DX003 (ip), vehicle: water): 186 % of control | T/C (dose: 0.75 mg/kg/injection, schedule: Q04DX003 (ip), vehicle: saline): 179 % of control and 267 % of control | T/C [3]: 207 % of control | T/C (dose: 1.0 mg/kg/injection, schedule: Q04DX003 (ip), vehicle: water): 195 % of control | T/C (dose: 1.5 mg/kg/injection, schedule: Q04DX003 (ip), vehicle: saline): 194 % of control and 267 % of control | T/C (dose: 1.5 mg/kg/injection, schedule: Q04DX003 (iv), vehicle: saline): 153 % of control and 217 % of control | T/C [4]: 342 % of control | T/C (dose: 2.0 mg/kg/injection, schedule: Q04DX003 (ip), vehicle: water): 235 % of control | T/C (dose: 3.0 mg/kg/injection, schedule: Q04DX003 (ip), vehicle: saline): 194 % of control and 267 % of control | T/C (dose: 3.0 mg/kg/injection, schedule: Q04DX003 (iv), vehicle: saline): 155 % of control and 232 % of control | T/C (dose: 4.0 mg/kg/injection, schedule: Q04DX003 (ip), vehicle: saline): 160 % of control | T/C (dose: 6.0 mg/kg/injection, schedule: Q04DX003 (iv), vehicle: saline): 179 % of control and 267 % of control

CC(C)NC(=O)OCc1c(COC(=O)NC(C)C)c(-c2ccc(Cl)c(Cl)c2)n2c1CCC2
T/C (dose: 3.75 mg/kg/injection, schedule: Q01DX009 (ip), vehicle: saline with Tween-80): 235 % of control | T/C (dose: 5.0 mg/kg/injection, schedule: Q01DX009 (ip), vehicle: saline with Tween-80): 222 % of control | T/C (dose: 7.5 mg/kg/injection, schedule: Q01DX009 (ip), vehicle: saline with Tween-80): 235 % of control | T/C (dose: 10.0 mg/kg/injection, schedule: Q01DX009 (ip), vehicle: saline with Tween-80): 222 % of control | T/C (dose: 15.0 mg/kg/injection, schedule: Q01DX009 (ip), vehicle: saline with Tween-80): 235 % of control | T/C (dose: 20.0 mg/kg/injection, schedule: Q01DX009 (ip), vehicle: saline with Tween-80): 222 % of control | T/C (dose: 30.0 mg/kg/injection, schedule: Q01DX009 (ip), vehicle: saline with Tween-80): 235 % of control | T/C (dose: 60.0 mg/kg/injection, schedule: Q01DX009 (ip), vehicle: saline with Tween-80): 235 % of control

CCC1(O)CC2CN(CCc3c([nH]c4ccccc34)C(C(=O)OC)(c3cc4c(cc3OC)N(C)C3C(O)(C(N)=O)C(O)C5(CC)C=CCN6CCC43C65)C2)C1 (stereo not given) (tested in a mixture with another compound)
T/C [1]: 92 % of control and 100 % of control | T/C [2]: 106 % of control | T/C [3]: 102 % of control | T/C [4]: 115 % of control and 235 % of control

S=c1nc[nH]c2nc[nH]c12
T/C (dose: 10.0 mg/kg/injection, schedule: Q04DX003 (ip), vehicle: alkali diluted with saline): 335 % of control | T/C (dose: 20.0 mg/kg/injection, schedule: Q04DX003 (ip), vehicle: alkali diluted with saline): 335 % of control | T/C (dose: 25.0 mg/kg/injection, schedule: Q04DX003 (ip), vehicle: alkali diluted with saline): 471 % of control | T/C (dose: 40.0 mg/kg/injection, schedule: Q04DX003 (ip), vehicle: alkali diluted with saline): 335 % of control | T/C (dose: 50.0 mg/kg/injection, schedule: Q04DX003 (ip), vehicle: alkali diluted with saline): 471 % of control | T/C (dose: 80.0 mg/kg/injection, schedule: Q04DX003 (ip), vehicle: alkali diluted with saline): 335 % of control | T/C (dose: 100.0 mg/kg/injection, schedule: Q04DX003 (ip), vehicle: alkali diluted with saline): 178 % of control and 471 % of control | T/C (dose: 100.0 mg/kg/injection, schedule: Q04DX003 (ip), vehicle: alkali diluted with water): 275 % of control and 283 % of control | T/C (dose: 160.0 mg/kg/injection, schedule: Q04DX003 (ip), vehicle: alkali diluted with saline): 335 % of control | T/C (dose: 200.0 mg/kg/injection, schedule: Q04DX003 (ip), vehicle: alkali diluted with saline): 93 % of control | T/C (dose: 200.0 mg/kg/injection, schedule: Q04DX003 (ip), vehicle: alkali diluted with water): 275 % of control and 369 % of control

Source: PubChem BioAssay AID184 (DTP/NCI, 2004)
